The text below walks through data of patent publication US20260034125A1, “N-PHENYL-1-(PHENYLSULFONYL)PIPERIDIN-4-AMINE DERIVATIVES AS CCR6 INHIBITORS” (priority 2023, published 2026).

The term IC50 denotes the point on the concentration scale where inhibition reaches its midpoint.

The target in this experiment is T1, human CCR6 (Homo sapiens, UniProt P51684).
T1 sequence (P51684 1-374): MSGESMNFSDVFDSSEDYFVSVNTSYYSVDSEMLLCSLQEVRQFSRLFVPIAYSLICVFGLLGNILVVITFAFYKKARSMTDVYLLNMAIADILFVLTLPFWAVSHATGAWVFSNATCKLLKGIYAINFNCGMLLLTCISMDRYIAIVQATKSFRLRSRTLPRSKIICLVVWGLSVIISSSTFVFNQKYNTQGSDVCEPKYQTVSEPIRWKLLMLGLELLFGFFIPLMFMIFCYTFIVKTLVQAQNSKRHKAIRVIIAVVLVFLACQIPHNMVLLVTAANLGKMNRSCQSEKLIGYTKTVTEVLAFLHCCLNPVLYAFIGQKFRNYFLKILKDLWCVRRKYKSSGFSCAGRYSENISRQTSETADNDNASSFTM
Nature of the experiment: Human CCR6-Cre reporter assay. The experiment is classed as cell-based. Also on record: The second construct contained the open reading frame of human CCR6 in the pUNO1 backbone; host or cells: 293 FT cells. Conditions: relative -LogIC50; transfected 293 FT cells, 6 μM Forskolin, 6 nM CCL20, luciferase readout, 5h. Here is the method: 293 FT cells were transfected with 2 constructs using TransIT-293 (Mirus). The first construct (pGL4.29, Promega) expressed the luciferase reporter gene luc2P in response to the binding of cAMP-induced CREB to the CRE element in its promoter. The second construct contained the open reading frame of human CCR6 in the pUNO1 backbone under the control of an enhanced CMV promoter (In VivoGen). 48h after transfection, cells were harvested and diluted to 750,000 cells/ml in culture medium (DMEM, 10% FBS, 1× pen/strep (Gibco 15140)). Compounds were 2.5-fold serially diluted in DMSO. Further dilutions were made in assay medium (DMEM, 10% FBS, 1× pen/strep, 6 μM Forskolin, 6 nM CCL20). 4 μl of the compound solution was added to a white MW384 plate, followed by 20 μl of the cell suspension. Final DMSO concentration in the assay was 0.1%. The MW384 plate was placed in an incubator at 37° C., 5% CO2 for 5h. Luciferase activity was determined by addition of 24 μl of a 2.5× diluted BriteLite luciferase solution (Perkin Elmer), followed by luminescence measurement using a VICTOR Plate reader (Perkin Elmer). […] The relative-LogIC50 was determined with GraphPad Prism 9 using a four-parameter dose-response model.
Molecule `N#Cc1ccc(-c2ccc(S(=O)(=O)N3CCC(Nc4ccc(C5(C#N)CC5)cc4)CC3)cc2)cc1` [Example 1, 4′-[(4-{[4-(1-cyanocyclopropyl)phenyl]Amino}piperidin-1-yl)sulfonyl]-[1,1′-biphenyl]-4-carbonitrile] showed an IC50 of 501 nM.

With `Cc1n[nH]c2ccc(-c3ccc(S(=O)(=O)N4CCC(Nc5ccc(C6(C(F)(F)F)CC6)cc5)CC4)cc3)cc12` [Example 2, 1-[4-(3-methyl-1H-indazol-5-yl)benzenesulfonyl]-N-{4-[1-(trifluoromethyl)cyclopropyl]phenyl}piperidin-4-amine], the IC50 is 79.4 nM.

The molecule `N#Cc1c[nH]c2ccc(-c3ccc(S(=O)(=O)N4CCC(Nc5ccc(C6(C(F)(F)F)CC6)cc5)CC4)cc3)cc12` [Example 8, 5-(4-{[4-({4-[1-(trifluoromethyl)cyclopropyl]phenyl}Amino)piperidin-1-yl]sulfonyl}phenyl)-1H-indole-3-carbonitrile] gave an IC50 of 39.8 nM.

The molecule `O=S(=O)(c1ccc(-c2ccc3nccn3c2)cc1)N1CCC(Nc2ccc(C3(C(F)(F)F)CC3)cc2)CC1` [Example 9, 1-(4-{imidazo[1,2-a]pyridin-6-yl}benzenesulfonyl)-N-{4-[1-(trifluoromethyl)cyclopropyl]phenyl}piperidin-4-amine] had an IC50 of 100 nM.

For `CC(C)c1cnc2ccc(-c3ccc(S(=O)(=O)N4CCC(Nc5ccc(C6(C(F)(F)F)CC6)cc5)CC4)cc3)cn12` [Example 10, 1-{4-[3-(propan-2-yl)imidazo[1,2-a]pyridin-6-yl]benzenesulfonyl}-N-{4-[1-(trifluoromethyl)cyclopropyl]phenyl}piperidin-4-amine], the IC50 was 100 nM.

On to `Cc1n[nH]c2ccc(-c3ccc(S(=O)(=O)N4CCC(Nc5ccc(C6CC6)cc5)CC4)cc3)cc12` [Example 11, N-(4-cyclopropylphenyl)-1-[4-(3-methyl-1H-indazol-5-yl)benzenesulfonyl]piperidin-4-amine], for which the IC50 is 501 nM.

Regarding `N=S(=O)(c1ccc(-c2ccc3nccn3c2)cc1)[C@H]1CC[C@H](Nc2ccc(C3(C(F)(F)F)CC3)cc2)CC1` (stereo partly drawn) [Example 13, (4-{imidazo[1,2-a]pyridin-6-yl}phenyl) [trans-4-({4-[1-(trifluoromethyl)cyclopropyl]phenyl}Amino)cyclohexyl](imino)-26-sulfanone], the IC50 was 251 nM.

Molecule `O=S(=O)(c1ccc(-c2ccc3nccn3c2)cc1)[C@H]1CC[C@H](Nc2ccc(C3CC3(F)F)cc2)CC1` (stereo partly drawn) [Example 14, 4-(2,2-difluorocyclopropyl)-N-[trans-4-(4-{imidazo[1,2-a]pyridin-6-yl}benzenesulfonyl)cyclohexyl]aniline] had an IC50 of 251 nM.

Regarding `N#CC1(c2ccc(N[C@H]3CC[C@H](S(=O)(=O)c4ccc(-c5ccc6nccn6c5)cc4)CC3)cc2)CC1` [Example 15, 1-(4-{[trans-4-(4-{imidazo[1,2-a]pyridin-6-yl}benzenesulfonyl)cyclohexyl]Amino}phenyl)cyclopropane-1-carbonitrile], the IC50 was 158 nM.

For `O=S(=O)(c1ccc(-c2ccc3nccn3c2)cc1)[C@H]1CC[C@H](Nc2ccc(C3COC3)cc2)CC1` [Example 18, 4-(oxetan-3-yl)-N-[trans-4-(4-{imidazo[1,2-a]pyridin-6-yl}benzenesulfonyl)cyclohexyl]aniline], the IC50 was 398 nM.

In turn, `COC1CC2(CCN(c3ccc(S(=O)(=O)N4CCC(Nc5ccc(C6(C#N)CC6)cn5)CC4)cc3)CC2)C1` [Example 23, 1-(6-{[1-(4-{2-methoxy-7-azaspiro[3.5]nonan-7-yl}benzenesulfonyl)piperidin-4-yl]amino}pyridin-3-yl)cyclopropane-1-carbonitrile] gave an IC50 of 1260 nM.

`N#CC1(c2ccc(NC3CCN(S(=O)(=O)c4ccc(N5CCC(CC(N)=O)CC5)cc4)CC3)nc2)CC1` [Example 24, 2-(1-{4-[(4-{[5-(1-cyanocyclopropyl)pyridin-2-yl]amino}piperidin-1-yl)sulfonyl]phenyl}piperidin-4-yl) acetamide] gave an IC50 of 5010 nM.

`N#CC1(c2ccc(NC3CCN(S(=O)(=O)c4ccc(N5CCC(CNC(N)=O)CC5)cc4)CC3)nc2)CC1` [Example 25, [(1-{4-[(4-{[5-(1-cyanocyclopropyl)pyridin-2-yl]amino}piperidin-1-yl)sulfonyl]phenyl}piperidin-4-yl)methyl]urea] gave a half-inhibitory concentration (IC50) of 12600 nM.

As for `N#CC1(c2ccc(NC3CCN(S(=O)(=O)c4ccc(N5CCC6(CC5)CC(=O)NC(=O)C6)cc4)CC3)nc2)CC1` [Example 26, 1-(6-{[1-(4-{8,10-dioxo-3,9-diazaspiro[5.5]undecan-3-yl}benzenesulfonyl)piperidin-4-yl]amino}pyridin-3-yl)cyclopropane-1-carbonitrile], the IC50 is 2510 nM.

Consider `N#CC1(c2ccc(NC3CCN(S(=O)(=O)c4ccc(N5CCC6(CC5)COC(=O)N6)cc4)CC3)nc2)CC1` [Example 27, 1-(6-{[1-(4-{2-oxo-3-oxa-1,8-diazaspiro[4.5]decan-8-yl}benzenesulfonyl)piperidin-4-yl]amino}pyridin-3-yl)cyclopropane-1-carbonitrile], for which the half-inhibitory concentration (IC50) is 7940 nM.

`N#CC1(c2ccc(NC3CCN(S(=O)(=O)c4ccc(N5CCC6(CCNC6=O)CC5)cc4)CC3)nc2)CC1` [Example 28, 1-(6-{[1-(4-{1-oxo-2,8-diazaspiro[4.5]decan-8-yl}benzenesulfonyl)piperidin-4-yl]amino}pyridin-3-yl)cyclopropane-1-carbonitrile] had an IC50 of 39800 nM.

Molecule `N#CC1(c2ccc(NC3CCN(S(=O)(=O)c4ccc(N5CCC6(CC5)COC6)cc4)CC3)nc2)CC1` [Example 29, 1-(6-{[1-(4-{2-oxa-7-azaspiro[3.5]nonan-7-yl}benzenesulfonyl)piperidin-4-yl]amino}pyridin-3-yl)cyclopropane-1-carbonitrile] showed an IC50 of 10000 nM.

`N#CC1(c2ccc(NC3CCN(S(=O)(=O)c4ccc(-c5ccc6nccn6c5)cc4)CC3)nc2)CC1` [Example 33, 1-(6-{[1-(4-{imidazo[1,2-a]pyridin-6-yl}benzenesulfonyl)piperidin-4-yl]amino}pyridin-3-yl)cyclopropane-1-carbonitrile]: 794 nM corresponded to half-maximal inhibition (IC50).

For the molecule `CC(C)c1cnc2ccc(-c3ccc(S(=O)(=O)N4CCC(Nc5ccc(C6(C#N)CC6)cn5)CC4)cc3)cn12` [Example 34, 1-{6-[(1-{4-[3-(propan-2-yl)imidazo[1,2-a]pyridin-6-yl]benzenesulfonyl}piperidin-4-yl)amino]pyridin-3-yl}cyclopropane-1-carbonitrile], it took 200 nM to reach half-maximal inhibition (IC50).

`CC(C)c1cnc2ccc(-c3ccc(S(=O)(=O)N4CCC(Nc5ccc(C6(C(F)(F)F)CC6)cn5)CC4)cc3)cn12` [Example 38, N-(1-{4-[3-(propan-2-yl)imidazo[1,2-a]pyridin-6-yl]benzenesulfonyl}piperidin-4-yl)-5-[1-(trifluoromethyl)cyclopropyl]pyridin-2-amine]: the IC50 was 63.1 nM.

For `CC(C)c1nnc2cnc(-c3ccc(S(=O)(=O)N4CCC(Nc5ccc(C6(C(F)(F)F)CC6)cn5)CC4)cc3)cn12` [Example 39, N-(1-{4-[3-(propan-2-yl)-[1,2,4]triazolo[4,3-a]pyrazin-6-yl]benzenesulfonyl}piperidin-4-yl)-5-[1-(trifluoromethyl)cyclopropyl]pyridin-2-amine], the midpoint of inhibition, the IC50, lay at 63.1 nM.
